Data published in patent US20030162762A1, “Novel cephalosporin compounds and process for preparing the same” (priority 2000, published 2003).
In brackets after ≈: the same amount, converted by molar mass. Read-outs that look alike come from different tables or passages of the source.

Experiments:
Assay in all cases: Minimum Inhibitory Concentration (MIC), agar dilution, standard strains
[1] = test system: E. faecalis EFS004; format: cell-based; settings: Enterococcus faecalis, EFS004; Table 2; Mueller-Hinton agar, 37° C., 20 hours; read-out: Minimum Inhibitory Concentration, E. faecalis EFS004
Description: (§1) The effectiveness of the compound according to the present invention was determined by obtaining Minimum Inhibitory Concentration (MIC) of the compounds prepared by the above examples (Compounds I-1 to I-41) and vancomycin, which is the known compound having a potent activity against gram-positive strains, as the control drug against the standard strains. Specifically, Minimum Inhibitory Concentration was obtained by diluting the test compound according to a double dilution method, dispersing them in Mueller-Hinton agar medium, inoculating each of the test strain having 10^7 cfu (colony forming unit) per ml in an amount of 2 μl to the medium and then incubating them at 37° C. for 20 hours. From the result of Minimum Inhibitory Concentration test, it can be seen that the compound according to the present invention has a good activity against major pathogenic microorganisms, which cause hospital infection, including MRSA strains.

[2] = test system: S. epidermidis R005; format: cell-based; settings: Mueller-Hinton agar, 37° C., 20 hours; for MIC: Staphylococcus epidermidis, R005, read-out: Minimum Inhibitory Concentration, S. epidermidis R005
Description: as §1

[3] = test system: Staphylococcus aureus giorgio; format: cell-based; settings: Mueller-Hinton agar, 37° C., 20 hours; for MIC: Staphylococcus aureus, read-out: Minimum Inhibitory Concentration, Staphylococcus aureus giorgio
Description: as §1

[4] = test system: S. aureus 77; format: cell-based, Staphylococcus aureus; settings: Mueller-Hinton agar, 37° C., 20 hours; for MIC: Staphylococcus aureus, 77, read-out: Minimum Inhibitory Concentration, S. aureus 77
Description: as §1

[5] = test system: S. aureus K311; format: cell-based, Staphylococcus aureus; settings: Staphylococcus aureus, K311; Table 2; Mueller-Hinton agar, 37° C., 20 hours; read-out: Minimum Inhibitory Concentration, S. aureus K311
Description: as §1

[6] = test system: E. faecalis L239; format: cell-based; settings: Table 1, Mueller-Hinton agar, 37° C., 20 hours; for MIC: Enterococcus faecalis, L239, read-out: Minimum Inhibitory Concentration, E. faecalis L239
Description: as §1

[7] = test system: S. aureus 241; format: cell-based, Staphylococcus aureus; settings: Table 1, Mueller-Hinton agar, 37° C., 20 hours; for MIC: Staphylococcus aureus, 241, read-out: Minimum Inhibitory Concentration, S. aureus 241
Description: as §1

SMILES	MIC [6]	MIC ([2]; Table 1)	MIC ([3]; Table 1)	MIC [7]	MIC ([4]; Table 1)	Minimum Inhibitory Concentration, E. faecalis L239 [6]	Minimum Inhibitory Concentration, S. epidermidis R005 ([2]; Table 1)	Minimum Inhibitory Concentration, Staphylococcus aureus giorgio ([3]; Table 1)	Minimum Inhibitory Concentration, S. aureus 241 [7]	Minimum Inhibitory Concentration, S. aureus 77 ([4]; Table 1)	other results
O=C(CSc1cc(Cl)nc(Cl)c1)N[C@@H]1C(=O)N2C(C(=O)O)=C(/C=C/CSc3ncnc4[nH]ncc34)CS[C@H]12 [Compound I-7, (6R,7R)-7-({2-[(2,6-dichloro-4-pyridinyl)sulfanyl]acetyl}amino)-8-oxo-3-[(E)-3-(1H-pyrazolo[3,4-d]pyrimidin-4-ylsulfanyl]-1-propenyl]-5-thia-1-azabicyclo[4.2.0]oct-2-ene-2-carboxylic acid]	–	–	–	–	–	–	–	–	–	–	MIC [1]: 0.5 µg/mL (≈ 0.819 µM); MIC ([2]; Table 2): 0.25 µg/mL (≈ 0.409 µM); MIC ([3]; Table 2): < 0.008 µg/mL; MIC ([4]; Table 2): 0.25 µg/mL (≈ 0.409 µM); MIC [5]: 0.5 µg/mL (≈ 0.819 µM)
Nc1cc(N)nc(SC/C=C/C2=C(C(=O)O)N3C(=O)[C@@H](NC(=O)CSc4cc(Cl)ccc4Cl)[C@H]3SC2)n1 [Compound I-24, (6R,7R)-3-{(E)-3-[(4,6-diamino-2-pyrimidinyl)sulfanyl]-1-propenyl}-7-({2-[(2,5-dichlorophenyl)sulfanyl]acetyl}amino)-8-oxo-5-thia-1-azabicyclo[4.2.0]oct-2-ene-2-carboxylic acid]	0.5 µg/mL (≈ 0.834 µM)	0.13 µg/mL (≈ 0.217 µM)	0.016 µg/mL (≈ 0.0267 µM)	4 µg/mL (≈ 6.67 µM)	0.25 µg/mL (≈ 0.417 µM)	–	–	–	–	–	–
Nc1ncnc(SC/C=C/C2=C(C(=O)O)N3C(=O)[C@@H](NC(=O)CSc4cc(Cl)ccc4Cl)[C@H]3SC2)c1N [Compound I-25, (6R,7R)-3-{(E)-3-[(5,6-diamino-4-pyrimidinyl)sulfanyl]-1-propenyl}-7-({2-[(2,5-dichlorophenyl)sulfanyl]acetyl}amino)-8-oxo-5-thia-1-azabicyclo[4.2.0]oct-2-ene-2-carboxylic acid]	2 µg/mL (≈ 3.34 µM)	1 µg/mL (≈ 1.67 µM)	0.063 µg/mL (≈ 0.105 µM)	16 µg/mL (≈ 26.7 µM)	0.5 µg/mL (≈ 0.834 µM)	–	–	–	–	–	–
Cc1c(N)nc(SC/C=C/C2=C(C(=O)O)N3C(=O)[C@@H](NC(=O)CSc4cc(Cl)ccc4Cl)[C@H]3SC2)nc1N [Compound I-26, (6R,7R)-3-{(E)-3-[(4,6-diamino-5-methyl-2-pyrimidinyl)sulfanyl]-1-propenyl}-7-({2-[(2,5-dichlorophenyl)sulfanyl]acetyl}amino)-8-oxo-5-thia-1-azabicyclo[4.2.0]oct-2-ene-2-carboxylic acid]	2 µg/mL (≈ 3.26 µM)	2 µg/mL (≈ 3.26 µM)	0.13 µg/mL (≈ 0.212 µM)	16 µg/mL (≈ 26.1 µM)	1 µg/mL (≈ 1.63 µM)	–	–	–	–	–	–
O=C(CSc1cc(Cl)ccc1Cl)N[C@@H]1C(=O)N2C(C(=O)O)=C(/C=C/CSc3ncnc4[nH]ncc34)CS[C@H]12 [Compound I-27]	–	–	–	–	–	0.13 µg/mL	0.13 µg/mL	<0.008 µg/mL	2 µg/mL	0.13 µg/mL	–
CSc1nc(C)cc(SC/C=C/C2=C(C(=O)O)N3C(=O)[C@@H](NC(=O)CSc4cc(Cl)ccc4Cl)[C@H]3SC2)n1 [Compound I-28, (6R,7R)-7-({2-[(2,5-dichlorophenyl)sulfanyl]acetyl}amino)-3-((E)-3-{[6-methyl-2-(methylsulfanyl)-4-pyrimidinyl]sulfanyl}-1propenyl)-8-oxo-5-thia-1-azabicyclo [4.2.0]oct-2-ene-2-carboxylic acid]	0.5 µg/mL (≈ 0.794 µM)	0.25 µg/mL (≈ 0.397 µM)	0.016 µg/mL (≈ 0.0254 µM)	32 µg/mL (≈ 50.8 µM)	0.25 µg/mL (≈ 0.397 µM)	–	–	–	–	–	–
CC[n+]1c(N)cc(N)nc1SC/C=C/C1=C(C(=O)O)N2C(=O)[C@@H](NC(=O)CSc3cc(Cl)ccc3Cl)[C@H]2SC1 [Compound I-29, (6R,7R)-4,6-diamino-2-({(E)-3-[2-carboxy-7-({2-[(2,5-dichlorophenyl)sulfanyl]acetyl}amino)-8-oxo-5-thia-1-azabicyclo[4.2.0]oct-2-en-3-yl]-2-propenyl}sulfanyl)-1-ethylpyrimidin-1-ium]	–	–	–	–	–	0.13 µg/mL	0.031 µg/mL	<0.008 µg/mL	1 µg/mL	0.063 µg/mL	–
CNc1cc(N)nc(SC/C=C/C2=C(C(=O)O)N3C(=O)[C@@H](NC(=O)CSc4cc(Cl)ccc4Cl)[C@H]3SC2)n1 [Compound I-30, (6R,7R)-3-((E)-3-{[4-amino-6-(methylamino)-2-pyrimidinyl]sulfanyl}-1propenyl)-7-({2-[(2,5-dichlorophenyl)sulfanyl]acetyl}amino)-8-oxo-5-thia-1-azabicyclo [4.2.0]oct-2-ene-2-carboxylic acid]	2 µg/mL (≈ 3.26 µM)	0.5 µg/mL (≈ 0.815 µM)	0.016 µg/mL (≈ 0.0261 µM)	16 µg/mL (≈ 26.1 µM)	0.5 µg/mL (≈ 0.815 µM)	–	–	–	–	–	–
Cc1c(N)nc[n+](C/C=C/C2=C(C(=O)O)N3C(=O)[C@@H](NC(=O)CSc4cc(Cl)ccc4Cl)[C@H]3SC2)c1N [Compound I-31]	–	–	–	–	–	2 µg/mL	0.25 µg/mL	0.016 µg/mL	8 µg/mL	1 µg/mL	–
Nc1nc2cc(N)[n+](C/C=C/C3=C(C(=O)O)N4C(=O)[C@@H](NC(=O)CSc5cc(Cl)ccc5Cl)[C@H]4SC3)cn2n1 [Compound I-32]	–	–	–	–	–	1 µg/mL	0.25 µg/mL	0.016 µg/mL	4 µg/mL	0.5 µg/mL	–
Cc1nc(N)cc[n+]1C/C=C/C1=C(C(=O)O)N2C(=O)[C@@H](NC(=O)CSc3cc(Cl)ccc3Cl)[C@H]2SC1 [Compound I-33]	–	–	–	–	–	0.5 µg/mL	0.063 µg/mL	<0.008 µg/mL	2 µg/mL	0.26 µg/mL	–
Nc1nc[n+](C/C=C/C2=C(C(=O)O)N3C(=O)[C@@H](NC(=O)CSc4cc(Cl)ccc4Cl)[C@H]3SC2)c2c1CCC2 [Compound I-34]	–	–	–	–	–	1 µg/mL	0.13 µg/mL	<0.008 µg/mL	4 µg/mL	0.5 µg/mL	–
Nc1nc[n+](C/C=C/C2=C(C(=O)O)N3C(=O)[C@@H](NC(=O)CSc4cc(Cl)ccc4Cl)[C@H]3SC2)c(N)c1N [Compound I-35]	–	–	–	–	–	0.5 µg/mL	0.25 µg/mL	0.016 µg/mL	2 µg/mL	0.25 µg/mL	–
Nc1cc(N)[n+](C/C=C/C2=C(C(=O)O)N3C(=O)[C@@H](NC(=O)CSc4cc(Cl)ccc4Cl)[C@H]3SC2)cn1 [Compound I-36]	–	–	–	–	–	0.25 µg/mL	0.063 µg/mL	<0.008 µg/mL	1 µg/mL	0.13 µg/mL	–
Cc1nc(N)cc(N(C)C)[n+]1C/C=C/C1=C(C(=O)O)N2C(=O)[C@@H](NC(=O)CSc3cc(Cl)ccc3Cl)[C@H]2SC1 [Compound I-37, 4-amino-1-{(E)-3-[(6R,7R)-2-carboxy-7-({2-[(2,5-dichlorophenyl)sulfanyl]acetyl}amino)-8-oxo-5-thia-1-azabicyclo[4.2.0]oct-2-en-3-yl]-2-propenyl}-6-(dimethylamino)-2-methylpyrimidin-1-ium]	–	–	–	–	–	0.5 µg/mL	0.25 µg/mL	0.016 µg/mL	4 µg/mL	0.25 µg/mL	–
CNc1cc(N)nc(C)[n+]1C/C=C/C1=C(C(=O)O)N2C(=O)[C@@H](NC(=O)CSc3cc(Cl)ccc3Cl)[C@H]2SC1 [Compound I-38, 4-amino-1-{(E)-3-[(6R,7R)-2-carboxy-7-({2-[(2,5-dichlorophenyl)sulfanyl]acetyl}amino)-8-oxo-5-thia-1-azabicyclo[4.2.0]oct-2-en-3-yl]-2-propenyl}-2-methyl-6-(methylamino)pyrimidin-1-ium]	–	–	–	–	–	1 µg/mL	0.5 µg/mL	0.031 µg/mL	8 µg/mL	1 µg/mL	–
